The numbers were not newly measured in patent publication US20070025931A1, “Powdery preparations containing 2.4.6-trianilino-p-(carbo-2'-ethylhexyl-1'-oxi)-1.3.5-triazine” (BASF Aktiengesellschaft, priority 2004, published 2007), which cites them from elsewhere.

For this data set the following is noted: at 314 nm.

As for `CCCCC(CC)COC(=O)c1ccc(Nc2nc(Nc3ccc(C(=O)OCC(CC)CCCC)cc3)nc(Nc3ccc(C(=O)OCC(CC)CCCC)cc3)n2)cc1` (stereo not shown) [Uvinul® T150, 2,4,6-Trianilino-p-(carbo-2′-ethylhexyl-1′-oxy)-1,3,5-triazine], the absorbance coefficient is listed as over 1500.
